Here are results for two compounds from patent US20170304169A1, “USE OF A COSMETIC COMPOSITION COMPRISING 10-HYDROXYSTEARIC ACID” (DSM IP ASSETS B.V., priority 2014, published 2017).

Common to all, as to type: cell-based
The subject of series [1] is Collagen 1. Put plainly: Collagen 1 synthesis in normal human fibroblasts (immunofluorescence, high content imaging). The settings on record: 48 h, primary human fibroblasts; for collagen 1 induction (in words): increasing amounts of compound. As for the experimental part:
(§1) Human dermal fibroblasts isolated from a biopsy of a donor (Fb-D) were maintained in Dulbecco's modified Eagle's medium high glucose (DMEM) containing 10% fetal calf serum (FCS) and 1% penicillin/streptomycin (P/S). Cells were cultivated at 37° C. in a humidified 5% CO2-air atmosphere.
Human dermal fibroblasts were pre-cultured in DMEM 10% FCS 1% P/S for 24 h before being starved in DMEM low glucose containing 0.2% FCS and 1% P/S for 2.5 days. Starvation medium was then replaced and solubilized compounds were added and incubated for 48 h. After compound incubation cells were fixed in DPBS containing 4% formaldehyde for 15 min and permeabilized with DPBS 0.1% Triton-X100 for 90 sec. Collagen 1 was detected using mouse anti human collagen 1 antibody and the first antibody was detected with AlexaFluor 488 conjugated goat anti-mouse IgG. We counterstained nuclei with DAPI. Stained cells were analysed with the Thermo Fisher High Content Imaging System. There were acquired 49 pictures per well with a 10× objective and images were subsequently analysed using the “CellHealthProfiling” bioapplication v4. Collagen 1 was measured in a defined region around the nucleus and the fluorescence intensity values were normalized to cell count.
Following a pre-culture period, primary human fibroblasts were incubated for 48 h with increasing amounts of compound. Cells were then fixed and collagen 1 protein level was assessed by immunofluorescence. The experiment was repeated twice. After starvation fibroblasts were incubated for 48 h with increasing amounts of compound. TGF-β1 serves as positive control. Values given are fold collagen 1 induction compared with control cells. […] Collagen 1 induction reached 2.2 fold induction when 10-HSA was used at 5 μM.

The test system of series [2] is p53. Put plainly: p53 detection and quantification in UVB-irradiated human skin organ culture. Particulars: 0.1 mg/ml, UVB (1 J/cm2), human skin explants. As for the experimental part:
Cell culture was performed as in example 12 above.
Skin sections have been stained with the antibody for p53 (Abcam, #ab7757). The p53 positive cells have been counted and the obtained value have been divided upon the area covered by epidermis. Two slides of each skin sample have been processed by image acquisition and related analysis (i.e. 12 images for each test treatment).
All quantitative data have been summarized in terms of the mean score for each treatment. The measures of variation as standard deviation and standard error of mean (SEM) have been applied to the original scores. Differences between groups were evaluated by One-way anova with permutation test followed by pairwise post-hoc comparisons—Dunnett's permutation test and pairwise post hoc comparisons—Tukey's HSD permutation tests.

Series [3] relates to Human dermal fibroblasts. Put plainly: Cytotoxicity measurement, MTT assay in human dermal fibroblasts. The settings on record: normal human fibroblasts, 48 h. Here is the method: as §1
Cytotoxicity was measured using the MTT assay according to the manufacturer's instructions. In brief: Fibroblasts (4000 cells/well, in 96-well cell culture plates from Nunc) were pre-cultured in DMEM 10% FCS 1% Penicillin/Streptomycin (P/S) for 24 h before being starved in DMEM low glucose containing 0.2% FCS and 1% P/S for 2.5 days. Starvation medium was then replaced and solubilized compounds were added and incubated for 48 h. Subsequently 10 μl MTT labelling reagent were added to each well (final concentration 0.5 mg/ml) and the microtiter plate was incubated for 4 h (37° C., 5% CO2). After addition of 100 μl solubilization solution into each well, the plate was allowed to stand overnight in the incubator (37° C., 5% CO2). The absorbance (OD) was measured in an absorbance plate reader at 550 nm.
Normal human fibroblasts treated with compounds for 48 h were assessed for viability using the MTT assay. Control values without compound were set to 100% viability.

Series [4] has as its system Collagen 3. The experiment in a line: Collagen 3 immunostaining in human skin organ culture. The settings on record: topical, human skin explants. As for the experimental part:
(§2) Human skin from abdominal plastic surgery has been used (donor[…]). Informed consent has been obtained. The skin phototype has been assayed with a spectro-colorimeter and classified as “BROWN” (ITA° angle=9.3°) (pigmentation scale: very light<light<intermediate<tanned<brown<dark) (Del Bino et al., Pigment Cell Research, 19. 2006).
(§3) The skin samples have been cut in pieces of approximately 8×3 mm (ø×thickness) and cultured up to day 6. Fourteen skin specimens have been used for each treatment. Two skin samples have been cultured to perform the skin viability test, six to perform the skin pigmentation and the collagen analyses and six for the SBC test.
Skin samples have been cultured in an air-liquid interface in a perforated ring of stainless steel in contact with culture medium (modified Williams' E medium) up to day 6. […]
Skin sections have been immune-stained with the selected antibody. The amount of the antigen present in each slide has been evaluated by estimating the intensity and the distribution of the red within a selected area of the dermis using Image J (NIH-USA). […]
All quantitative data have been summarized in terms of the mean score for each treatment. […] Differences between groups were evaluated by One-way anova with permutation test followed by pairwise post-hoc comparisons—Dunnett's permutation test and pairwise post hoc comparisons—Tukey's HSD permutation tests.

Series [5] deals with Human skin from abdominal plastic surgery. The experiment in a line: Skin viability (MTT) in human skin organ culture. Particulars: topical, 0.1, 1 and 10 mg/ml, day 6, MTT. As for the experimental part: as §2, §3
Skin samples have been cultured in an air-liquid interface in a perforated ring of stainless steel in contact with culture medium (modified Williams' E medium) up to day 6. The culture medium has been renewed every three days (i.e. day 0-3).
Both the test samples and the controls have been applied topically and renewed daily. […]
After 6 days of incubation two skin biopsies have been weighed and, in case, reduced in the dermal portion, in order to have approximately the same weight for all of them. […] Subsequently the blue crystals have been solubilized and the color intensity, that is directly proportional to skin vitality, has been measured with a plate reader at a wavelength of 570 nm. […]

Series [6] deals with MMP-1. Put plainly: MMP-1 expression by RT-qPCR in UVB-irradiated human skin organ culture. Particulars: UVB (1 J/cm2), human skin explants. Here is the method:
Human skin from abdominal plastic surgery has been used (donor). Informed consent has been obtained. The skin phototype has been assayed with a spectro-colorimeter and classified as “LIGHT” (ITA° angle=50°) (pigmentation scale: very light<light<intermediate<tanned<brown<dark) (Del Bino et al., Pigment Cell Research, 19. 2006).
The skin samples have been cut in pieces of 8×3 mm (ø×thickness) and cultured up to day 2. Two skin samples for each treatment have been cultured to perform the MMP-1 analysis.
Skin samples have been cultured in an air-liquid interface in a perforated ring of stainless steel in contact with culture medium (modified Williams' E medium) up to day 2. The culture medium has been renewed every three days (i.e. day 0-3).
Both the test samples and the controls have been applied topically, renewed 1 hour prior of UVB irradiation. Right before the irradiation the treatments have been gently yet carefully removed from the skin samples. […]
For RT-qPCR analysis, total RNA have been extracted from full thickness skin using RNAeasy mini kit for fibrous tissues (Qiagen) following manufacturer's instructions. After quantification, 400 ng of total RNA have been retro-transcribed using random hexamers and Superscript III (Invitrogen). […]
(In general: Quantitative PCR measures a nucleic acid by following its amplification.)

In series [7] the test system is Type III collagen. The experiment in a line: Collagen 3 synthesis in normal human fibroblasts (immunofluorescence, ArrayScan). The settings on record: 48 h, human dermal fibroblasts. Here is the method:
Human dermal fibroblasts obtained from adult skin (donor) were seeded into 96-well plates (4000 cells/well) and cultured in Dulbecco's Modified Eagle Medium (DMEM) with 10% fetal calf serum (FCS) and 1% Penicillin/Streptomycin (Life Technologies, Lucerne, Switzerland) at 37° C. with 5% CO2 for 24 h. After medium was changed with DMEM Low Glucose containing 0.2% FCS and 1% Pen/Strep, the cells were incubated for another 2.5 days. Then, starvation medium was replaced with fresh medium containing the test compounds. After 48 h incubation the cells were fixed in Dulbecco's Phosphate-Buffered Saline (DPBS) containing 4% formaldehyde (Life Technologies, Lucerne, Switzerland) for 15 min and permeabilized with 0.1% Triton-X100 in DPBS for 90 sec.
Collagen 3 was detected using rabbit anti-human Type III collagen (BioTrend, Cologne, Germany), followed by the AlexaFluor 488 conjugated secondary IgG antibody (goat anti-rabbit IgG, Life Technologies, Lucerne, Switzerland). […]
Stained cells were analysed with the ArrayScan VTI HCS Reader (Thermo Fisher Scientific, Waltham, Mass., USA). The total of 49 pictures per well was acquired with a 10× objective and images were subsequently analysed using the “CellHealthProfiling” bioapplication v4. Collagen was measured in a defined region around the nucleus and the fluorescence intensity values were normalized to the cell count. […]

Structures are written as SMILES.

Turning to `CCCCCCCCCCCCCCCCCC(=O)O` [stearic acid], the “collagen 1 induction (in words)” value in series [1] was “did not induced collagen 1 expression”.
Take `CCCCCCCCC(O)CCCCCCCCC(=O)O` (centres unmarked) [10-HSA, 10-hydroxystearic acid]: the “p53 UV-induced stimulation vs DMSO UV” value in series [2] was −46%. Further, the “cytotoxic effect (reduction of cell survival to less than 80% compared to control cells)” value in series [3] is on record as “did not show any cytotoxic effect”. For the same compound, the “increase in expression of collagen 3” value in series [4] (0.1 mg/ml) is on record as “+49%”; in series [4] (1 mg/ml), “+57%”. For the same compound, the skin viability entry in series [5] was “did not affect skin viability”. For the same compound, the “MMP-1 expression in comparison to vehicle (DMSO), in words” value in series [6] was “significantly and considerably reduced the expression of MMP-1”. In addition, in series [1] (5 μM), the “fold collagen 1 induction compared with control cells” value was 2.2 fold. For the same compound, the “collagen 1 induction (in words)” value in series [1] is recorded as “dose dependent induction of collagen 1”. In addition, the “increase in type III collagen compared with medium treated cells” value in series [7] (5 μM) is 244%. Besides, in series [7] (p<0.01 relative to medium control), the “type III collagen synthesis (in words)” value is given as “significantly induced type III collagen synthesis in a dose-dependent manner”.
